Assay results published in the supplement of paper PMC10307832.

Columns and labels:
Test in all cases: relative viability (nuclei count vs DMSO), 5 days (fraction); higher = more cells survive
AZD1208 + Olaparib = compound: N[C@@H]1CCCN(c2c(/C=C3\SC(=O)NC3=O)cccc2-c2ccccc2)C1 [AZD1208] + O=C(c1cc(Cc2n[nH]c(=O)c3ccccc23)ccc1F)N1CCN(C(=O)C2CC2)CC1 [Olaparib] (partner 8 µM)
Outline: (§1)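 Relative viability was taken as the ratio of nuclei in treated wells to nuclei in vehicle wells. Lung cancer cell lines in 1536-well plates received compounds by pin tool one day after seeding, either one drug alone or a fixed anchor-drug dose plus five library-drug doses (not always all listed) in √10 steps. Nuclei were counted on 4× images after 5 days of treatment, and values are medians of duplicate plates.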

XMD14-99 + Lapatinib = compound: CN1CCN(CC1)C2=CC(=C(C=C2)NC3=NC(=C(S3)C(=O)C4=C(C=CC=C4Cl)Cl)N)OC [XMD14-99] + CS(=O)(=O)CCNCc1ccc(-c2ccc3ncnc(Nc4ccc(OCc5cccc(F)c5)c(Cl)c4)c3c2)o1 [Lapatinib] (partner 2 µM)
Outline: as §1

AZD1208 + Tozasertib = compound: N[C@@H]1CCCN(c2c(/C=C3\SC(=O)NC3=O)cccc2-c2ccccc2)C1 [AZD1208] + Cc1cc(Nc2cc(N3CCN(C)CC3)nc(Sc3ccc(NC(=O)C4CC4)cc3)n2)n[nH]1 [Tozasertib] (partner 0.1 µM)
Outline: as §1

AZD1208 + Alpelisib = compound: N[C@@H]1CCCN(c2c(/C=C3\SC(=O)NC3=O)cccc2-c2ccccc2)C1 [AZD1208] + Cc1nc(NC(=O)N2CCC[C@H]2C(N)=O)sc1-c1ccnc(C(C)(C)C(F)(F)F)c1 [Alpelisib] (partner 2 µM)
Outline: as §1

Cell Line	relative viability (AZD1208 + Olaparib; first compound 0.08 µM)	relative viability (AZD1208 + Olaparib; first compound 0.253 µM)	relative viability (AZD1208 + Olaparib; first compound 0.8 µM)	relative viability (AZD1208 + Olaparib; first compound 2.53 µM)	relative viability (AZD1208 + Olaparib; first compound 8 µM)	relative viability (XMD14-99 + Lapatinib; first compound 0.08 µM)	relative viability (XMD14-99 + Lapatinib; first compound 0.8 µM)	relative viability (XMD14-99 + Lapatinib; first compound 2.53 µM)	relative viability (XMD14-99 + Lapatinib; first compound 8 µM)	relative viability (AZD1208 + Tozasertib; first compound 0.08 µM)	relative viability (AZD1208 + Tozasertib; first compound 0.253 µM)	relative viability (AZD1208 + Tozasertib; first compound 0.8 µM)	relative viability (AZD1208 + Tozasertib; first compound 2.53 µM)	relative viability (AZD1208 + Tozasertib; first compound 8 µM)	relative viability (AZD1208 + Alpelisib; first compound 0.08 µM)	relative viability (AZD1208 + Alpelisib; first compound 0.253 µM)	relative viability (AZD1208 + Alpelisib; first compound 0.8 µM)	relative viability (AZD1208 + Alpelisib; first compound 2.53 µM)	relative viability (AZD1208 + Alpelisib; first compound 8 µM)
PC-3 [JPC-3]	1.17	1.31	1.1	1.2	1.19	0.491	0.443	0.41	0.387	0.9	0.989	0.906	0.886	0.78	1.07	1.07	1	1.1	0.946
PC-14	0.381	0.248	0.27	0.365	0.257	0.328	0.303	0.262	0.216	0.554	0.55	0.467	0.503	0.463	0.928	1	0.956	0.917	0.931
RERF-LC-KJ	0.826	0.965	0.857	0.825	0.673	0.849	0.837	0.799	0.829	0.505	0.423	0.56	0.519	0.384	0.708	0.762	0.703	0.652	0.607
SK-LU-1	0.446	0.419	0.367	0.448	0.436	0.969	0.841	0.74	0.565	0.298	0.298	0.246	0.285	0.22	0.792	0.913	0.979	0.9	0.76
SK-MES-1	0.697	0.715	0.672	0.653	0.577	0.416	0.46	0.432	0.403	1	0.956	0.903	0.853	0.744	0.697	0.856	0.628	0.704	0.683
SW 1573	0.417	0.499	0.336	0.445	0.406	1.06	1.17	1.21	0.985	0.22	0.175	0.178	0.129	0.149	0.65	0.705	0.595	0.505	0.592
